The source of these data is ChEMBL document CHEMBL1201862, “PubChem BioAssay data set” (2004).

For one test, the target named is Galanin receptor type 2 (Homo sapiens, UniProt O43603). In words: Dose Response cell-based high-throughput screening assay to identify antagonists of galanin receptor 2 (GALR2). [Related pubchem assays: 828, 866 ]. It is filed as functional.
A further test concerns INS1. As to the kind of experiment: beta cell apoptosis inhibitors, cytokine rescue, dose response, luminescence, retest (AID 449756).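 Further: cell death triggered by IL-1 beta plus TNF-alpha plus IFN-gamma mixture; protective hits raise ATP signal compared with cytokine alone wells.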 It is filed as functional, cell-based. The note with it: Rattus norvegicus.
The next test addresses Mucolipin-3 (Homo sapiens, UniProt Q8TDD5). As to the kind of experiment: Dose response cell-based high-throughput screening assay for agonists of the transient receptor potential channel ML3 (TRPML3). [Related pubchem assays: 1526, 1424, 1448 ]. In kind it is functional.
The target in the next test is Ion channel NompC (Danio rerio, UniProt Q7T1G6). In words: Fluorescence counterscreen assay for TRPML3 agonists: dose response cell-based high-throughput screening assay to identify agonists of the transient receptor potential channel N1 (TRPN1). [Related pubchem assays: 1526, 1424, 1448 ]. It is filed as functional. In general terms: Counterscreens check selectivity or assay interference.
Chain of Ion channel NompC (Q7T1G6 whole entry): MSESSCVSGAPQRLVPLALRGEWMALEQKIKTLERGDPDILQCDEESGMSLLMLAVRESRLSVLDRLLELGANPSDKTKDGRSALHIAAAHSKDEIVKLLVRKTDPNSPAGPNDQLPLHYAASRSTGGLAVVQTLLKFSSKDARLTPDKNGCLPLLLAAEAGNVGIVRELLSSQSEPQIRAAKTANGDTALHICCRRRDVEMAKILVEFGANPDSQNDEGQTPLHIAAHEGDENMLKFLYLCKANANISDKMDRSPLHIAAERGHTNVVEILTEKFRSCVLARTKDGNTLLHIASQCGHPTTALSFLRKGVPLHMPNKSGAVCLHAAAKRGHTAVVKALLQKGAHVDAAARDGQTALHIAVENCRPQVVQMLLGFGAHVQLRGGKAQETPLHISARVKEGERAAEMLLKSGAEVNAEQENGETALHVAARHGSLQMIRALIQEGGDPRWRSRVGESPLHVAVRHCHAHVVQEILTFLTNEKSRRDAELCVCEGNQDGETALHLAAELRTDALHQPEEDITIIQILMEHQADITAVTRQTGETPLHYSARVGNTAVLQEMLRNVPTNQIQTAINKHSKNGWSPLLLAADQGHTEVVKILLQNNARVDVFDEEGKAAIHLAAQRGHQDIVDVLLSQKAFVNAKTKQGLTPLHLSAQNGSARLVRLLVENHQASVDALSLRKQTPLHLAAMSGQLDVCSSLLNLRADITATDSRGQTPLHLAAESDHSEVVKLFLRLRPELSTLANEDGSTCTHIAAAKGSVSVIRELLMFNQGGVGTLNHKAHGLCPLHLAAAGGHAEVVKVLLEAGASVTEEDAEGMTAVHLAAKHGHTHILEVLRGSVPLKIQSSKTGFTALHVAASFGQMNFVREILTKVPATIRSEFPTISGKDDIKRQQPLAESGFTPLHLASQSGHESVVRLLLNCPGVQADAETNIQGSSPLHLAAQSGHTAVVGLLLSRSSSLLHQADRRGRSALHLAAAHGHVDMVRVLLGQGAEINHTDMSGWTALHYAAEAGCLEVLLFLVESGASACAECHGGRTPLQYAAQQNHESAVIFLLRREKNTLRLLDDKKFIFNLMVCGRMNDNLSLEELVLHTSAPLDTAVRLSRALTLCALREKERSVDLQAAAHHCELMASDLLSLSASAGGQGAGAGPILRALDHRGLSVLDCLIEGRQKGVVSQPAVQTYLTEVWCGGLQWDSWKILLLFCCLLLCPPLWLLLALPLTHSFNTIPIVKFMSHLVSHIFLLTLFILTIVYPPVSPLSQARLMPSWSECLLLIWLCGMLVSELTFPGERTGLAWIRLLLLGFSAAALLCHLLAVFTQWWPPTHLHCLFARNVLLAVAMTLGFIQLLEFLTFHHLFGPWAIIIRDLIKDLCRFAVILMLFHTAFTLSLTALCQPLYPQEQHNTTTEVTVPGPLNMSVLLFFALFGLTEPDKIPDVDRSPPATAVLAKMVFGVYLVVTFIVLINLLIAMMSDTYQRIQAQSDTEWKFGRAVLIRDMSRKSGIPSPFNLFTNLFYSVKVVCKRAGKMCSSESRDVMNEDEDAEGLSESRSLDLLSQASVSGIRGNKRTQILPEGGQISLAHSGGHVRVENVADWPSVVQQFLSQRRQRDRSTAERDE

In test [1] the target is T1, Low molecular weight phosphotyrosine protein phosphatase (Homo sapiens, UniProt P24666).
T1 sequence (P24666 whole entry): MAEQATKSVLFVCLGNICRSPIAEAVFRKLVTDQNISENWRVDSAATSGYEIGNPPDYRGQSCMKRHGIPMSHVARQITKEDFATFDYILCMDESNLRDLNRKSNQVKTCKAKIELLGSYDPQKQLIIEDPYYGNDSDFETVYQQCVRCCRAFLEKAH
As to the kind of experiment: LMPTP phosphatase inhibitors, colorimetric pNPP readout, dose response, orthogonal assay, biochemical, absorbance, pNPP substrate, LMPTP-A isoform, set 2 (AID 743308). It is filed as functional.

Test [2] deals with T1, Low molecular weight phosphotyrosine protein phosphatase. As to the kind of experiment: LMPTP phosphatase inhibitors, dose response, biochemical, OMFP substrate, fluorescence intensity, set 2 (AID 743307). In kind it is functional.
For test [3], the target named is Sphingosine 1-phosphate receptor 4 (Homo sapiens, UniProt O95977). In words: Fluorescence dose response cell-based high throughput screening assay for antagonists of the Sphingosine 1-Phosphate Receptor 4 (S1P4). [Related pubchem assays: 1524 (Confirmation in triplicates.), 1510 (Primary screen.)]. It is filed as functional.
Chain of Sphingosine 1-phosphate receptor 4 (O95977 whole entry): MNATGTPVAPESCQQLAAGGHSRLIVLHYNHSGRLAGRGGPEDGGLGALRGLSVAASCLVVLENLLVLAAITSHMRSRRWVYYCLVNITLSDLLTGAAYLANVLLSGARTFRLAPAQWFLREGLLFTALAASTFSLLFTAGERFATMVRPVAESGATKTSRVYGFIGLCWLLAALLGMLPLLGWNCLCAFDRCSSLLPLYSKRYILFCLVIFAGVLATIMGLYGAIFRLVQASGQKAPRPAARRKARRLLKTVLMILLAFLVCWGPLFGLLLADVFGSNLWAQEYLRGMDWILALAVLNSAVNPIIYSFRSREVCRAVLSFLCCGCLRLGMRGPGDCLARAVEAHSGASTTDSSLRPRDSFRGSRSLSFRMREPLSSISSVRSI
Test [4] can be described thus: inhibitors of PGC1a acetylation in cells, dose response, cell-based, cherry-picked samples (AID 720514).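 Further: potency may reflect raised or lowered acetylation signal.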 It is filed as functional.
Test [5] addresses T2, Hepatocyte nuclear factor 4-alpha (Homo sapiens, UniProt P41235).
T2 sequence (P41235 whole entry): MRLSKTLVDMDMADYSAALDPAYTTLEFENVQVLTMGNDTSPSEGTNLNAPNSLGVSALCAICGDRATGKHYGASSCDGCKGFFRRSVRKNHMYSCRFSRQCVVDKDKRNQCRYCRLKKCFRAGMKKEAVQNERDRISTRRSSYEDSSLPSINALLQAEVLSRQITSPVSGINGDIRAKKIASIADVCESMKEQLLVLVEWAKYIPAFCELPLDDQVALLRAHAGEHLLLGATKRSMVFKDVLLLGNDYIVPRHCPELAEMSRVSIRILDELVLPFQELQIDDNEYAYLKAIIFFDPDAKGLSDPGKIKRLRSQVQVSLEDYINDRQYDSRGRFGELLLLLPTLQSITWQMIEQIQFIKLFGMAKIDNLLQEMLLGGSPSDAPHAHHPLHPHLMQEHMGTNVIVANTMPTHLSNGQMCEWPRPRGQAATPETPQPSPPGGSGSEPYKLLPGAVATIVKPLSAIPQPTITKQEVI
In kind it is functional, cell-based.

Another test deals with Vero. As to the kind of experiment: cells. The note with it: Chlorocebus sabaeus. In kind it is functional.
Test [6] has as its target Sphingosine 1-phosphate receptor 1 (Homo sapiens, UniProt P21453). In kind it is functional.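 Further: Tango beta-arrestin reporter U2OS cells stimulated with S1P near its EC80; inhibitor potency meaning antagonism of receptor activation by the natural agonist.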
The nature of test [7]: Luminescent dose response cell-based high throughput screening assay for inhibitors of the Janus kinase 2 mutant JAK2V617F. [Related pubchem assays: 1446 (Primary screen.), 1521 (Confirmation assay.), 1486 (Counter screen.)]. It is filed as functional.
A short description of test [8]: Luminescence Cell-Based Dose Response to Identify Activators of 5'UTR Stem-Loop Driven Prion Protein mRNA Translation in H4-C Neuroglioblastoma Cells. [Related pubchem assays: 1829 (Project Summary), 1814 (Primary HTS)]. It is filed as functional.
The nature of test [9]: Luminescence Cell-Based Dose Response to Identify Activators of Luciferase Translation or Activity in H4-C Neuroglioblastoma Cells. [Related pubchem assays: 1829 (Project Summary), 1814 (Primary HTS)]. It is filed as functional.
Test [10] is described as follows: Luminescence Cell-Based Dose Confirmation to Identify Activators of 5'UTR Stem-Loop Driven Alpha-Synuclein mRNA Translation in H4 Neuroglioblastoma Cells. [Related pubchem assays: 1829 (Project Summary), 1814 (Primary HTS)]. It is filed as functional.
A short description of test [11]: Luminescence Cell-Based Dose Confirmation HTS to Identify Activators of 5'UTR Stem-Loop Driven Alpha-Synuclein mRNA Translation in H4 Neuroglioblastoma Cells. [Related pubchem assays: 1829 (Project Summary), 1814 (Primary HTS)]. In kind it is functional.
Test [12] is described as follows: Luminescence Cell-Based Dose Response HTS to Identify Activators of Luciferase Translation or Activity in H4 […] Cells. [Related pubchem assays: 1829 (Project Summary), 1814 (Primary HTS)]. In kind it is functional.
The next test has as its system H4. As to the kind of experiment: Luminescence Cell-Based Dose Response HTS to Identify Activators of 5'UTR Stem-Loop Driven Prion Protein mRNA Translation in H4 Neuroglioblastoma Cells. [Related pubchem assays: 1829 (Project Summary), 1814 (Primary HTS)]. In kind it is functional. As to conditions: Homo sapiens.
Test [13] deals with Voltage-gated inwardly rectifying potassium channel KCNH2 (Homo sapiens, UniProt Q12809). In words: hERG protection from proarrhythmic block, potency, dose response, cell-based, thallium flux (AID 2121). It is filed as ADME.
Chain of Voltage-gated inwardly rectifying potassium channel KCNH2 (Q12809 whole entry): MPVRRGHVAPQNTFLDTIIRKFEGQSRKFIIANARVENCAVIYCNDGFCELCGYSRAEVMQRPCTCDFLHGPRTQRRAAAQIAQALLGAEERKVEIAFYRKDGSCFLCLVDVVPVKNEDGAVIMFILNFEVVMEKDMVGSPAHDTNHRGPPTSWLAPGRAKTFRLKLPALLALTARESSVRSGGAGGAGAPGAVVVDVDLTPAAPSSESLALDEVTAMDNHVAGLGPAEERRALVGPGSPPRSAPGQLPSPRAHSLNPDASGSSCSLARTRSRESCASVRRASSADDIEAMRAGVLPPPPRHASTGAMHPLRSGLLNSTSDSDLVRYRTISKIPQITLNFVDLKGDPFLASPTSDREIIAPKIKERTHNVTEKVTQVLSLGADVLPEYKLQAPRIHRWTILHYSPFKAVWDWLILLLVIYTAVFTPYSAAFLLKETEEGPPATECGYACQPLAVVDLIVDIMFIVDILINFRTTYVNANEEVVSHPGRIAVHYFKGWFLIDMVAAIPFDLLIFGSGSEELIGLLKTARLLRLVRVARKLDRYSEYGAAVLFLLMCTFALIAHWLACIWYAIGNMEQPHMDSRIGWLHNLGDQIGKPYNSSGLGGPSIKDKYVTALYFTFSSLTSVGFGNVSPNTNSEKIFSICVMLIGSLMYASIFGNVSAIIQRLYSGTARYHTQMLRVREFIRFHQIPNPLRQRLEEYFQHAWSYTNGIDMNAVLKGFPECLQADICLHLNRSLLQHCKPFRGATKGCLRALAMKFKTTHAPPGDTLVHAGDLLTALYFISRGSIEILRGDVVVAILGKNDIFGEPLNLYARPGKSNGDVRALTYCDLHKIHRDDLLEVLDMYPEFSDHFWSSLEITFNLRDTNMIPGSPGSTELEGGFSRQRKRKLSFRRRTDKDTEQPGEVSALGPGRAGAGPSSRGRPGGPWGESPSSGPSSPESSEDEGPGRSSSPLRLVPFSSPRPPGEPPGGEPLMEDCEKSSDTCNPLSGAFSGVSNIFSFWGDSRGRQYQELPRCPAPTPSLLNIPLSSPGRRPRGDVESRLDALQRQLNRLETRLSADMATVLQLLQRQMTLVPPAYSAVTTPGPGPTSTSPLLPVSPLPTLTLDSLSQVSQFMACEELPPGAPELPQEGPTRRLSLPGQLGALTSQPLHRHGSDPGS
Test [14] addresses T3, Polyadenylate-binding protein 1 (Homo sapiens, UniProt P11940). In words: PABP1 MLLE–PAM2 binding inhibitor potency, dose response, biochemical, fluorescence polarization, FITC-PAM2 peptide (AID 602259). It is filed as functional. The note with it: read-out: IC50_Mean.
Test [15] addresses T3, Polyadenylate-binding protein 1. In words: PABP1 MLLE–PAM2 interaction inhibitors, dose response, miRNA deadenylation inhibitor project, biochemical, fluorescence polarization, Cy5-PAM2 peptide, secondary (AID 602260). It is filed as functional. As to conditions: read-out: IC50_Mean. For orientation: In fluorescence polarisation assays a small probe gives low polarisation when free and higher when bound to something large.

Another test concerns the target T4, Estrogen receptor (Homo sapiens, UniProt P03372).
T4 sequence (P03372 whole entry): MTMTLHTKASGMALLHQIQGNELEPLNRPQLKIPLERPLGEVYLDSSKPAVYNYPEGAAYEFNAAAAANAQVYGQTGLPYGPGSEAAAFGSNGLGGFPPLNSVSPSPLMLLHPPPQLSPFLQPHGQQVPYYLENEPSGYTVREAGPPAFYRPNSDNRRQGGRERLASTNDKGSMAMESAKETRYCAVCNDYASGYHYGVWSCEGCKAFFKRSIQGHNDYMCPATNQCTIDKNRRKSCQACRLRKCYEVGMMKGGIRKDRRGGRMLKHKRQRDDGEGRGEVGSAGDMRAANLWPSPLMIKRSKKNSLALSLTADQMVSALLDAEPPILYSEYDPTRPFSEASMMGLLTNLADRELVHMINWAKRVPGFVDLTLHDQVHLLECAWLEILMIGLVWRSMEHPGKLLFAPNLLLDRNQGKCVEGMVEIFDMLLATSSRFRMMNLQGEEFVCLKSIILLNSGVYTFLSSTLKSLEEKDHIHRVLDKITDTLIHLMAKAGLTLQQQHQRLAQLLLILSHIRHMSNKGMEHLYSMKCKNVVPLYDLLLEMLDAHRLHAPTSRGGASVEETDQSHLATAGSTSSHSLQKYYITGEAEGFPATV
In words: potentiators of ERα–SRC-1 coactivator binding, dose response, biochemical, TR-FRET, ERα LBD (AID 737).

The source made the active and inactive calls.

T3 sequence (P11940 whole entry): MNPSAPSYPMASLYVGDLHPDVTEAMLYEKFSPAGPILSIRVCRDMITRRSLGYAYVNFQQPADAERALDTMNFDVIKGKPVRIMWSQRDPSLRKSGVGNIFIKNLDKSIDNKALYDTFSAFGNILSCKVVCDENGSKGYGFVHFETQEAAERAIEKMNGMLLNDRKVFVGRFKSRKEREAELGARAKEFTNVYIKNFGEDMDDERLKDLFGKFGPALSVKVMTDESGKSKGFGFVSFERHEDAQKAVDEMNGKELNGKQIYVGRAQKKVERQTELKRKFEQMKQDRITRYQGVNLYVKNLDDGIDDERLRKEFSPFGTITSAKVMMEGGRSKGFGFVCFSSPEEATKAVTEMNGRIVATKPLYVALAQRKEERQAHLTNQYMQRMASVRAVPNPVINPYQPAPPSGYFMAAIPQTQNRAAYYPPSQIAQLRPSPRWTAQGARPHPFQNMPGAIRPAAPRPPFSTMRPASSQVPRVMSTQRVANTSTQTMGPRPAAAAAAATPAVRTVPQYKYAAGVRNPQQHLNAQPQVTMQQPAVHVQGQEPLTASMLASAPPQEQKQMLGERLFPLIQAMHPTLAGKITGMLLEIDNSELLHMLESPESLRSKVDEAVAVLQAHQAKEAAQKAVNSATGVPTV
Chain of Mucolipin-3 (Q8TDD5 whole entry): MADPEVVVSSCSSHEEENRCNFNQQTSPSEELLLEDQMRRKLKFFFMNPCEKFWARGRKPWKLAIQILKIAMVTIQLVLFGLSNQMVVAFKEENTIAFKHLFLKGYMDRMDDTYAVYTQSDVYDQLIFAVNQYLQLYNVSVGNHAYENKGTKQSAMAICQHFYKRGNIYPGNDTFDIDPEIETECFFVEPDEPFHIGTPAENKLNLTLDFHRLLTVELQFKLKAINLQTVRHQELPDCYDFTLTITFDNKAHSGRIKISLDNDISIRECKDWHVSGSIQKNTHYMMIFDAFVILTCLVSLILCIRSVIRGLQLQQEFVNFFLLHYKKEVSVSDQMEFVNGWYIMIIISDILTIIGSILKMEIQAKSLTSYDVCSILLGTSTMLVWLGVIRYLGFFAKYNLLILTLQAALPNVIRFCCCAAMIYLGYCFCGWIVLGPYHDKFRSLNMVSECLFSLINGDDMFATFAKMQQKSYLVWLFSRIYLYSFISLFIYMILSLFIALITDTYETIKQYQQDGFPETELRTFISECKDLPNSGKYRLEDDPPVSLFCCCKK
Chain of Sphingosine 1-phosphate receptor 1 (P21453 whole entry): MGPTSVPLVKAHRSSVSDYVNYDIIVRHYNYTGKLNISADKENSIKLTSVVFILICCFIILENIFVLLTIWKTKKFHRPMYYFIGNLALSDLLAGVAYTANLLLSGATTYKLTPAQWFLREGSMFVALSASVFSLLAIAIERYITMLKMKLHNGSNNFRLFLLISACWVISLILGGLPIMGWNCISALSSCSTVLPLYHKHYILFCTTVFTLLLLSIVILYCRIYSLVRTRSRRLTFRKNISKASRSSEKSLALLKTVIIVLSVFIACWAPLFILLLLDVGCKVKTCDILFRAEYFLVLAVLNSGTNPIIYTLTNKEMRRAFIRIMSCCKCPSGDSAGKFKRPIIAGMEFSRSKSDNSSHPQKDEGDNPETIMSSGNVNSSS

What is called AC50 is the midpoint of the concentration-response curve, whichever way the signal moves. Take `CCOC(=O)N1CCN(c2[nH]cnc3c4cc(F)ccc4nc2-3)CC1`: the IC50 on Galanin receptor type 2 was 45.6 µM (not active). Also, the AC50 in the test with INS1 is 5.61 µM (active).

The EC50 is the midpoint of the concentration-response curve. Take `CSc1nc2ccccc2nc1N(C)S(=O)(=O)c1ccc(C)cc1`: the EC50 at Mucolipin-3 and at Ion channel NompC was > 29.9 µM (not active) each time.

For the compound `c1ccc(-c2nc(NC3CC3)c3ccccc3n2)cc1`, the IC50 in test [1] was > 80 µM (inactive); in [2] it was 48.1 µM (inactive).

Broadly, the CC50 is the concentration giving 50% cytotoxicity. For `O=C(/C=C/c1ccccc1)CC(O)(c1ccccc1)C(F)(F)C(F)F` (stereo not drawn), the IC50 is 1.7 µM (active) in [3], 2.27 µM (active) in test [5] and 30.6 µM (not active) in test [6]. Besides, the AC50 in [4] was 12.4 µM (active). For the same compound, in the test with Vero, the CC50 is 17.5 µM (active).

In the case of `c1ccc2c(CN3CCCCCC3)c[nH]c2c1`, in test [7], the IC50 was 0.702 µM (active). Also, in the test on INS1, the AC50 was 4.09 µM (active).

In the case of `CC1CCCCN1CCCNC(=O)c1ccc2nc(N3CCCCC3)sc2c1` (stereo not drawn), the concentration giving a half-maximal response (EC50) in test [8] is 0.994 µM (active); in [9], 0.397 µM (active); in test [10] it was 0.593 µM (active); in [11], 0.177 µM (active); in test [12], < 0.1 µM (active); in the test on H4, 15.1 µM (active).

For the compound `Cc1ccc(S(=O)(=O)N=C(S)NC2CCCCC2)cc1`, the EC50 in [13] is 9.12 µM (active). For the same compound, the IC50 in [14] and in test [15] was > 66 µM (inactive) each time.

For the compound `CCc1nnc2sc(-c3ccc(NC(=O)c4ccc5c(c4)OCCO5)cc3)nn12`, the EC50 at Estrogen receptor is reported as 32.2 µM (not active).
